Assay [1] concerns the target T1, USP9X (Homo sapiens (Human), UniProt Q93008). Briefly: Steady-state enzyme inhibition kinetics of USP9X. Type of assay: biochemical. The text has this: The data were fit to a general model for enzyme inhibition (FIG. 1E) so the values of the parameters determined from the assays specified the mode of inhibition. For example, in the case of α=1 and β=0, it corresponded to purely non-competitive inhibition. For α=infinity and p=1, it corresponded to purely competitive inhibition. The values of all the parameters, KS, KI, kcat, α, and β could be determined from the steady state measurements. The enzyme reactions were set up as described in the Inhibiting the catalytic activity of USP9X section. The concentration of the substrate ubqiutin-rhodamine110 was varied. The initial rates of the reactions were determined at several concentrations of the inhibitor Compound 2A. In order to determine the values of the parameters KS and kcat, the reaction rates in the absence of the inhibitor Compound 2A, the initial reaction rate data were fit to the standard Michaelis-Menten equation v=Vmax [S]/(Km+[S]). The values of α and β could then be determined by fitting the initial rate data of the enzyme reaction at various concentrations of Compound 2A to a modified version of the Michaelis-Menten equation, designating both Vmax and KS apparent to distinguish the apparent values of the parameters determined from these plots to the true values for these parameters determined from the steady state kinetics in the absence of Compound 2A. The values of α and β could be determined from the variation of the slopes and intercepts of the series of double reciprocal plots of 1/v versus 1/[S] for each concentration of Compound 2A. […] The two values determined for KI were from the two different plots.
The two values for KI were determined by two different methods for determining this parameter from the kinetic data: 1 represented a value determined from the slope of the 1/A intercept vs 1/[I] plot; 2 represented a value determined from the y intercept of the 1/A slope vs 1/[I] plot. […] Only the values of the parameters varied for the compounds.

Assay [2] has as its target T1, USP9X. Briefly: USP9X enzyme activity assay, ubiquitin-rhodamine110 substrate.
Description: The inhibition property of compound Compound 1A was evaluated in assays measuring the ability of USP9X to catalyze the hydrolysis of the amide bond between the C terminal carboxylate of ubiquitin and rhodamine110 of the fluorogenic substrate ubiquitin-rhodamine 110. To the wells of a 96 well reaction plate was added 12.5 μL USP9X solution (1.3 nM) in assay buffer (100 mM NaCl, 1 mM DTT, 0.1% bovine serum albumin, 0.05% Tween 20, 50 mM Tris, pH 7.5). 12.5 μL of Compound 1A in assay buffer (4×final concentration) was added to the wells containing the USP9X solution, and the solution was gently mixed by pipetting up and down several times. The plate was sealed and incubated at room temperature for 20 minutes.
Then 25 μL of the 1 μM substrate (ubiquitin-rhodaminel10) solution was added in assay buffer. The final substrate concentration was 0.5 μM. […] The slope for the rate of change of the fluorescence was determined and plotted vs the concentration of Compound 1A.
USP9X enzyme assays were set up in a 96 well plate to assess the abilities of Compound 3A and Compound 4A to inhibit the activity of USP9X, respectively. Ubiquitin-rhodamine110 was used as the substrate and ubiquitin aldehyde was included in the assay as a positive control.
Purified recombinant USPx9 (R&D Systems) in 50 mM Tris buffer pH 7.5, 1 mM DTT, 100 mM NaCl, 0.05% Tween 20 and 0/1% BSA is used at a concentration of 0.325 nM with 0.5 μM ubiquitin-rhodamine (R&D Systems).
Assay [3] deals with Mcl-1. Put plainly: Western blot of Mcl-1 in U937 cells. Type of assay: cell-based. The method, then:
After 24 hours treatment with Compound 7A, U937 cells were collected by centrifugation and whole cell lysates were prepared. These lysates were analyzed by Western blot to determine the level of Mcl-1. Western blot analysis was carried out as previously described (Wang et al., 2014 Journal of the American Society of Nephrology DOI: 10.1681/asn.2013060665). The band intensity for Mcl-1 in these samples were normalized to that of tubulin to correct for any inconsistencies in total protein in loading and processing the whole cell lysates.
To investigate the mechanism of action, Western blot analysis was carried out to test the induced degradation of USP9X substrate Mcl-1 by the compounds under the effects of protein synthesis inhibitor cycloheximide and/or proteasome inhibitor MG132. U937 cells were treated with 10 μM cycloheximide for one hour, with 10 μM MG132 for one hour, with the combination of 10 μM cycloheximide and 10 μM MG132 for one hour, and with vehicle (DMSO) for one hour, respectively, prior to the treatment with Compound 5A for 24 hrs. The U937 cells were harvested after treatment and whole cell lysates were prepared. These lysates were analyzed by Western blot to determine the abundance of Mcl-1 as well as that of tubulin as a normalization control. […] The band intensity of the Mcl-1 in cells treated with cycloheximide alone (Lane 2) was reduced relative to that for tubulin. […] Global blockade of protein synthesis by cycloheximide led to a significant decrease in the expression levels, especially for short lived Mcl-1. The retention of a reduced portion of Mcl-1 indicated the immunity of this portion to proteasomal degradation. […] In contrast, the band intensity of Mcl-1 relative to that of tubulin increased upon treatment of U937 cells with the proteasome inhibitor MG132 (Lane 4). […] Together, the results of this Example are consistent with the compounds acting on the proposed mechanism that intracellular inhibition of the deubiquitylase activity of USP9X blocks its ability to rescue USP9X substrates such as Mcl-1 from proteasomal degradation. In other aspects, by varying the concentration ratios of the compound and proteasome inhibitor for treating cells, it was possible to achieve controlled degradation of a USP9X substrate so the substrate could decline to a desirable level rather than degrade entirely.
(In general: A western blot detects proteins with antibodies after separation by electrophoresis.)

For assay [4], the target named is USP28 (Homo sapiens (Human), UniProt Q96RU2). Put plainly: DUB selectivity panel using ubiquitin-AMC. Type of assay: biochemical. The text has this: (§1) Compounds were screened for DUB inhibitory and apoptotic activity against other deubiquitylases in a DUB selectivity panel using ubiquitin-AMC (BPS Bioscience Inc.).
Assay [5] addresses USP10 (Homo sapiens (Human), UniProt Q14694). Briefly: DUB selectivity panel using ubiquitin-AMC. Type of assay: biochemical. The note with it: 5 μM compound, 500 nM Ubiquitin-AMC.
Description: as §1

Assay [6] addresses USP25 (Homo sapiens (Human), UniProt Q9UHP3). Put plainly: DUB selectivity panel using ubiquitin-AMC. The note with it: 5 μM compound, 500 nM Ubiquitin-AMC. Type of assay: biochemical.
Description: as §1

In assay [7] the target is USP2 (Homo sapiens (Human), UniProt O75604). Put plainly: DUB selectivity panel using ubiquitin-AMC. It is filed as biochemical.
USP2, sequence (O75604 whole entry): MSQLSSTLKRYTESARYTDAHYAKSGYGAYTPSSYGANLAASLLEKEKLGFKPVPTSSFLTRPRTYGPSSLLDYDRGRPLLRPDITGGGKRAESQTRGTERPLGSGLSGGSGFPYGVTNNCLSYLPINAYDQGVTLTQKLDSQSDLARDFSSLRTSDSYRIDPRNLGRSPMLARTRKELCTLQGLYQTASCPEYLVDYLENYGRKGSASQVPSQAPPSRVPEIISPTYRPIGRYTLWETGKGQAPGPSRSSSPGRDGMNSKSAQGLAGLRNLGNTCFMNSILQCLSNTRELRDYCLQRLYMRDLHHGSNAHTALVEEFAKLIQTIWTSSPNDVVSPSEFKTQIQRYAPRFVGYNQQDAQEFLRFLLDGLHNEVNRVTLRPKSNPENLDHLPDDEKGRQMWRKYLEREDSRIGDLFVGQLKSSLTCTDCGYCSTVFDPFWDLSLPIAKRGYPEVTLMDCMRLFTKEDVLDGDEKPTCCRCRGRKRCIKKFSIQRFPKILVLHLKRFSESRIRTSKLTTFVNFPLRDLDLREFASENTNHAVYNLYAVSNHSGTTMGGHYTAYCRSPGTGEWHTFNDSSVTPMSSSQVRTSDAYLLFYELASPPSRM
Description: as §1

For assay [8], the target named is USP4 (Homo sapiens (Human), UniProt Q13107). Briefly: DUB selectivity panel using ubiquitin-AMC. It is filed as biochemical. The conditions noted are these: 5 μM compound, 500 nM Ubiquitin-AMC.
Description: as §1

Assay [9] addresses USP30 (Homo sapiens (Human), UniProt Q70CQ3). Briefly: DUB selectivity panel using ubiquitin-AMC. It is filed as biochemical. The note with it: 5 μM compound, 500 nM Ubiquitin-AMC.
Description: as §1

Assay [10] has as its target UCH-L3 (Homo sapiens (Human), UniProt P15374). Put plainly: DUB selectivity panel using ubiquitin-AMC. The note with it: 5 μM compound, 500 nM Ubiquitin-AMC. It is filed as biochemical.
Description: as §1

Assay [11] deals with USP5 (Homo sapiens (Human), UniProt P45974). Briefly: DUB selectivity panel using ubiquitin-AMC. The conditions noted are these: 5 μM compound, 500 nM Ubiquitin-AMC. It is filed as biochemical.
USP5, sequence (P45974 whole entry): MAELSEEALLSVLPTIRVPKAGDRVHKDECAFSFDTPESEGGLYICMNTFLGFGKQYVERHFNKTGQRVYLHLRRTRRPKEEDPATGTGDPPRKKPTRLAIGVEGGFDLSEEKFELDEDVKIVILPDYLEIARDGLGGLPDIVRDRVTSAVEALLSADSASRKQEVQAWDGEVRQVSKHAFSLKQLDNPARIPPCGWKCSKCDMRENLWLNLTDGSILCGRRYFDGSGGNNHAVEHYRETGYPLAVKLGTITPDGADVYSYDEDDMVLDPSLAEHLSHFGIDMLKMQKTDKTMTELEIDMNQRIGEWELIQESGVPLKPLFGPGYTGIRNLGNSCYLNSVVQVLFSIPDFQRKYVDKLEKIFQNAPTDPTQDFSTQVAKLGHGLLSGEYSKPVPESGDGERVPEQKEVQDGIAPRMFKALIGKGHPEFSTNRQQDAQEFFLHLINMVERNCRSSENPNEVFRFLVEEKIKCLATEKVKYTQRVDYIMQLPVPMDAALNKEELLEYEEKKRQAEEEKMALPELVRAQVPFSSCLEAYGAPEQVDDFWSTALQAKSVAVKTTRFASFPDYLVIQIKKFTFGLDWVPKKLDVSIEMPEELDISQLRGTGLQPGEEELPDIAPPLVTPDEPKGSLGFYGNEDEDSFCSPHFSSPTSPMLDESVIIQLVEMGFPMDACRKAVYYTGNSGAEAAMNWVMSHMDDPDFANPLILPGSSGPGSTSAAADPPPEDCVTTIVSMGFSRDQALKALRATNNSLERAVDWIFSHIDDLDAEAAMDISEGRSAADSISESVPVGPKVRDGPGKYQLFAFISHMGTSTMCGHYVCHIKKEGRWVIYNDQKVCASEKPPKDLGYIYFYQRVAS
Description: as §1

The target of assay [12] is USP7 (Homo sapiens (Human), UniProt Q93009). Put plainly: DUB selectivity panel using ubiquitin-AMC. It is filed as biochemical.
USP7, sequence (Q93009 whole entry): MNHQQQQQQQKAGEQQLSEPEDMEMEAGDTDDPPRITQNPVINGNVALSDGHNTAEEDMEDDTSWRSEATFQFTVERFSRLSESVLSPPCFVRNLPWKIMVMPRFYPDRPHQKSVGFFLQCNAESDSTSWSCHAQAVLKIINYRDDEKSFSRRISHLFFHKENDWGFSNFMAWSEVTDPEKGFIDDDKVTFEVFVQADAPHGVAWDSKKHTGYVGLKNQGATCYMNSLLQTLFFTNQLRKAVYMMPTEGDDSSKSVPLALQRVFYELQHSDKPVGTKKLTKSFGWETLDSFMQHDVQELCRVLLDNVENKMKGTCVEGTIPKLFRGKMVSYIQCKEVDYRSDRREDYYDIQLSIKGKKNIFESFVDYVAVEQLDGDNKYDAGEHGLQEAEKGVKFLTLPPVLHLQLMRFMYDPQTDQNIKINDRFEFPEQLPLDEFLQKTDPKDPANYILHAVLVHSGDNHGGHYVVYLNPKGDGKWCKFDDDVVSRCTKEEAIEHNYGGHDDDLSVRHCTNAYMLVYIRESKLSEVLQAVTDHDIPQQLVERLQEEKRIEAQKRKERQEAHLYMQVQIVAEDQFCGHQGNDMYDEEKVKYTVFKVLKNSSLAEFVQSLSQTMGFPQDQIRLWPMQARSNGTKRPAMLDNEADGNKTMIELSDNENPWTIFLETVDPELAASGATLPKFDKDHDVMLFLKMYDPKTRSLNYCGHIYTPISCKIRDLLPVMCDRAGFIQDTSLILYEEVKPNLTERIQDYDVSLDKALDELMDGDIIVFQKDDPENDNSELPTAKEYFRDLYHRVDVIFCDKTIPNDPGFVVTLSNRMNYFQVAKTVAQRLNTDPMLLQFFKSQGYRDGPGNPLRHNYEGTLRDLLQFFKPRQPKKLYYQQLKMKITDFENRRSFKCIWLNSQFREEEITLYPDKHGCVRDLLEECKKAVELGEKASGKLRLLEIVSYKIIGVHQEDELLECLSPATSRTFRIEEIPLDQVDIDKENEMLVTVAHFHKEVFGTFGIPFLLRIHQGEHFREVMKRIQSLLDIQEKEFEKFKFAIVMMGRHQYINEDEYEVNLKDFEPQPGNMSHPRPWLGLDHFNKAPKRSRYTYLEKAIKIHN
Description: as §1

In assay [13] the test system is BT-549. Put plainly: ONCOLINES Profiler proliferation. Type of assay: cell-based, human. The text has this:
The compounds were profiled on an ONCOLINES™ Profiler (Netherlands Translational Research Center) assayed with 66 cancer cell lines to determine if they were capable of inhibiting the proliferation of these cancer cells.
To further evaluate potency of the compounds, they were compared with the USP9X inhibitor WP 1130 by screening both the compounds and WP1130 on a 66-cancer cell line panel ONCOLINES™ Profiler.

Setting [14] is: from the slope of the 1/Δ intercept vs 1/[I] plot, read-out: KI, nM (1).
The mark [15] stands for this setting: from the y intercept of the 1/Δ slope vs 1/[I] plot, read-out: KI, nM (2).
The mark [16] stands for this setting: read-out: IC50 for the inhibition of USP9X activity, ubiquitin-rhodamine110 substrate.
[17] abbreviates: read-out: USP9X IC50 nM, Table 2.
The mark [18] stands for this setting: 5 μM compound, 500 nM Ubiquitin-AMC.

Like-named read-outs stand apart in the source and are kept apart here.

T1 sequence (Q93008 whole entry): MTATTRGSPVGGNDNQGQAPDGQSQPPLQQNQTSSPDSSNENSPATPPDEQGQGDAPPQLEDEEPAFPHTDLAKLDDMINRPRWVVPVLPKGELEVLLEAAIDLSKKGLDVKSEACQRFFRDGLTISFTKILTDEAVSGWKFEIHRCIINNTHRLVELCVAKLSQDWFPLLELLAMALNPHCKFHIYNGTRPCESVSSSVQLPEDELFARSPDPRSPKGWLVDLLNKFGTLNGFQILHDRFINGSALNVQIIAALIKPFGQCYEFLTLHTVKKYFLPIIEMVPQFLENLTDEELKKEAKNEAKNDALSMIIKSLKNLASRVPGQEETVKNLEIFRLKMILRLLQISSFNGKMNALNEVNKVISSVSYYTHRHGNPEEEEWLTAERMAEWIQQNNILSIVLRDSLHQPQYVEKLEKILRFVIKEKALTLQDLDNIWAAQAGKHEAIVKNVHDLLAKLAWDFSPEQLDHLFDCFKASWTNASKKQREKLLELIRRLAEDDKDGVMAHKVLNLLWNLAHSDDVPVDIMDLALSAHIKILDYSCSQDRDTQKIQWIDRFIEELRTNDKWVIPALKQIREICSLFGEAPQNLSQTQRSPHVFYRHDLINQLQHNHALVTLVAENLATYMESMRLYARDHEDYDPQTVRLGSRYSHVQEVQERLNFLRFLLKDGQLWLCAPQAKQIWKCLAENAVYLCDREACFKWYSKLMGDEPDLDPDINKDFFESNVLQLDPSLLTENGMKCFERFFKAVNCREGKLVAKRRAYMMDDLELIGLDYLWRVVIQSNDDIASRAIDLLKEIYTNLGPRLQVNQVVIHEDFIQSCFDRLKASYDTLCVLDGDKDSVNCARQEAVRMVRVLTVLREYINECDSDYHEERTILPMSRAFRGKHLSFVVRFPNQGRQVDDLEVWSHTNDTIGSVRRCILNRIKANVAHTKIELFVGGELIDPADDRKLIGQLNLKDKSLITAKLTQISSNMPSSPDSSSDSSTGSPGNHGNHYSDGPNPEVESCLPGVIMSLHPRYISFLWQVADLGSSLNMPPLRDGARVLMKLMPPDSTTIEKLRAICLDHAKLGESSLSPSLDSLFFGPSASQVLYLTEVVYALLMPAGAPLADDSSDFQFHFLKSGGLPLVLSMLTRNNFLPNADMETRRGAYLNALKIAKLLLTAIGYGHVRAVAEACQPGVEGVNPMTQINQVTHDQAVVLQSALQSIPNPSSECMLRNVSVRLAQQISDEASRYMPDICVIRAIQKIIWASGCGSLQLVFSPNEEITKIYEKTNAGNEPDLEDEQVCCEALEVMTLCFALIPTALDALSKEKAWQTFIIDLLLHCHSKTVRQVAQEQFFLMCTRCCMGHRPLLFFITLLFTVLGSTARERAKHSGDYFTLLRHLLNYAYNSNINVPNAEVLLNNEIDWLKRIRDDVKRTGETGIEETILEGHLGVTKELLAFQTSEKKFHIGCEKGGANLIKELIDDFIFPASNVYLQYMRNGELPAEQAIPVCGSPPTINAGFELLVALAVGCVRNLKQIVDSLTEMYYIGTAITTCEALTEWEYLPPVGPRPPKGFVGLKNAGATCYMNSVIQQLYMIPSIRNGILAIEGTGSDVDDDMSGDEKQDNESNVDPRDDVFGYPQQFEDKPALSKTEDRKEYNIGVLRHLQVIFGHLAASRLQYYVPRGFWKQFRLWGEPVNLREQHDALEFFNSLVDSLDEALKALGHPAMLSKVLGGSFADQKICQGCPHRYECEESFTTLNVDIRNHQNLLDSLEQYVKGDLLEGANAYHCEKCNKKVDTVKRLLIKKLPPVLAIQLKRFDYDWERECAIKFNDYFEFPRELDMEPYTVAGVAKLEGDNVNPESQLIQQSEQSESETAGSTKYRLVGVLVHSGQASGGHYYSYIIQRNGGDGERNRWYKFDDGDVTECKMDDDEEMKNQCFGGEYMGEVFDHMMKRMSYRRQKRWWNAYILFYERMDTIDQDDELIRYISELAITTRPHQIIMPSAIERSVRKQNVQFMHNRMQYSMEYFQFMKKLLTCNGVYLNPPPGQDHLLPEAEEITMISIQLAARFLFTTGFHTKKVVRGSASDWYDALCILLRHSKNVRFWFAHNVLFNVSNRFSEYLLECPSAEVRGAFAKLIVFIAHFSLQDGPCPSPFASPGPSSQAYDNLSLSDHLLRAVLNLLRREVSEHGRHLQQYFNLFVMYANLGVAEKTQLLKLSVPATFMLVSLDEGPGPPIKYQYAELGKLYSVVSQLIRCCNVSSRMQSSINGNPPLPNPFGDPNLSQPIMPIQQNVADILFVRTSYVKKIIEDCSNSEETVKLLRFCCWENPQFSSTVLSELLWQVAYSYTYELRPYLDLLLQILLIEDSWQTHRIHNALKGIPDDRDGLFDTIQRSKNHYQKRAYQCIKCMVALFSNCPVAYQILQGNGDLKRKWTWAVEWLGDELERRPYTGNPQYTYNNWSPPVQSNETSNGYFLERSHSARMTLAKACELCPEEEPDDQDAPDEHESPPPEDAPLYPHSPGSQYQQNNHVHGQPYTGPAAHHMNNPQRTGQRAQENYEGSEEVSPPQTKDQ

The term Ki denotes a dissociation constant, usually derived from enzyme kinetics or from competition with a known ligand. Usually IC50 stands for the midpoint of a concentration-inhibition curve. By inhibition is commonly meant how much of the control response was suppressed. For `CN1CCOc2ccc(cc2)C(=O)NCc2cccc(c2)C(=O)N[C@@H](CC(C)(C)C)C(=O)Nc2ccc(cc2)CCN(C)C(=O)CC(C)(C)CC1=O` [Compound 5A], the “KS” value in [1] came to 1.2 µM. Besides, in assay [1], the “VMAX RFU/min” value was determined as 335 RFU/min. In addition, the α in assay [1] is listed as 2.3. For the same compound, the β in assay [1] worked out at 0.78. Moreover, the values for the inhibitory constant (Ki) in [1] (setting [14]) and in [1] (setting [15]) were 6.7 nM and 24 nM, respectively. For the same compound, the IC50 is 30 nM in assay [2] (setting [16]); 30 nM in assay [2] (setting [17]); 15000 nM in [4]; over 50000 nM in assay [7]; over 50000 nM in assay [12]. The “ability to induce the degradation of Mcl-1 on addition of MG132” value in assay [3] (10 μM MG132 one hour before compound) is “blocked”. Besides, the “reduction of Mcl-1” value in [3] (Compound 5A for 24 hrs (Lane 3)) is given as “about 50%”. Moreover, the inhibition at 5 µM was under 1% in [5]; 0% in assay [6]; 0% in [7] (setting [18]); 0% in assay [8]; under 5% in assay [9]; 0% in assay [10]. For the same compound, the inhibition at 5 µM in [11] and in assay [12] (setting [18]) was 0% each time. Also, the “inhibition of USP25” value in assay [6] is recorded as “no detectable effect”. The “inhibition of USP2” value in assay [7] (setting [18]) was “no detectable effect”. In addition, the “inhibition of USP4” value in assay [8] is on record as “no detectable effect”. In assay [10], the “inhibition of UCH-L3” value was “no detectable effect”. For the same compound, in assay [11], the “inhibition of USP5” value was “no detectable effect”. In addition, the “inhibition of USP7” value in assay [12] (setting [18]) is given as “no detectable effect”.

On to `CN1CCOc2ccc(cc2)C(=O)NCc2ccc(F)c(c2)C(=O)N[C@@H](CC(C)(C)C)C(=O)Nc2ccc(cc2)CCN(C)C(=O)CC(C)(C)CC1=O` [Compound 7A], for which the “IC50 Ratio WP1130/Compound 7A” value in assay [13] (BT-549) worked out at 27.0. For the same compound, the 50% inhibitory concentration (IC50) in [13] (BT-549, breast ductal carcinoma) came out at 199 nM; in [13] (Homo sapiens, BT-549, BT-549, breast ductal carcinoma) it was 200 nM; in assay [2] (setting [16]) it was 11 nM; in [2] (setting [17]), 11 nM. Further, in assay [1], the “KS” value came to 1.87 µM. In addition, in [1], the “VMAX RFU/min” value is given as 589 RFU/min. This compound also showed a α in assay [1] of 1.85. The compound further came in with a β in [1] of 0.72. The inhibitory constant (Ki) in [1] (setting [14]) turned out to be 9.4 nM; in assay [1] (setting [15]), 10.3 nM. Also, in assay [3] (24-hour treatment, concentration from 0 to 33 μm), the “decrease of normalized level of Mcl-1” value worked out at 50%.

The values are drawn from patent US20240294467A1, “USP9X Inhibitors” (ProDeg, LLC, priority 2021, published 2024).
